Reference: publication PMC11286589, “Population pharmacokinetics and exposure–response analyses of SAF-189s in Chinese patients with ALK+/ROS1+ non-small cell lung cancer” (Frontiers in Pharmacology, 2024)
Like-named read-outs stand apart in the source and are kept apart here.

Key:
[1] = tested on: ALK+/ROS1+ advanced NSCLC; assay: Exposure–efficacy analysis (logistic regression, Cox regression, SFBE tumor model); assay type: in vivo, human; settings: for Incidence CR: 61 patients
Protocol: (§1) All studies were conducted in accordance with the Good Clinical Practice guidelines and Declaration of Helsinki. The protocols were approved by the independent ethics committee of each investigation site, and all subjects provided informed consent. The tumor responses were assessed by the IRC based on the Response Evaluation Criteria in Solid Tumors (RECIST) 1.1 conditions. The exposure–efficacy analyses of SAF-189s were conducted based on data from patients in the SAF001 study to explore the relationships between systemic exposure and efficacy endpoints, including the ORR, PFS, and duration of response (DOR). The exposure–safety analyses of SAF-189s were conducted based on data from patients in the SAF001 study to explore the relationships between the systemic exposure and safety endpoints, including the adverse events (AEs) of interest. In these studies, the SAF-189s plasma concentrations were analyzed using validated liquid chromatography tandem mass spectrometry within the assay range of 0.5–150 ng mL^–1.
The exposure–efficacy analysis entails evaluation of the relationships between the individual SAF-189s exposures and efficacy endpoints. These efficacy endpoints include the ORR, PFS, DOR, and tumor size. In Eq. 1, the Stein-Fojo biexponential (SFBE) model was used to characterize the tumor shrinkage (mean shrinkage rate, KS) and tumor growth inhibition (mean regrowth rate, KG) parameters to compute the sum of longest lesion diameters (SOD). SODij= It≤0×SOD0i×expKGi×tij+It>0×SOD0i×exp−KSi×tij+expKGi×tij−1+eij. (1)
The individual post hoc PK parameters from the final PopPK model and the most prevalent dosage were used to calculate Cmin,ss and AUCss at steady state. The exposure was assessed for its relationship with the ORR using a logistic regression model and with PFS/DOR using the Cox regression model. The individual model parameter estimates (KGi, KSi) were plotted versus Cmin, ss_i to explore the relationships between exposure and tumor growth.

[2] = Adverse events in patients of study SAF001; assay type: in vivo, human
Protocol: as §1
(§2) The exposure–safety relationships were characterized using the exposure metrics to the first occurrence of an event. The AEs of interest selected for analysis included hyperglycemia and proteinuria. The individual post hoc PK parameters from the final PopPK model and the first dosage were used to calculate the Cmin,ss, Cmax,ss, and AUCss at steady state, which were used as the exposure metrics. The exposure–safety analysis was performed using a logistic regression modeling approach.

[3] = Exposure–safety analysis (logistic regression); assay type: in vivo, human; settings: per increase in exposure (AUCss) of 1 ng∙h mL^–1 d^–1, all patients
Protocol: as §1, §2

[4] = previous NCA results, no reference given, cited from earlier work
[5] = Cmin,ss quartile 1, 61 patients
[6] = Cmin,ss quartile 2, 61 patients
[7] = Cmin,ss quartile 3, 61 patients
[8] = Cmin,ss quartile 4, 61 patients
[9] = parameter Cmin,ss, 192 patients, p 0.251
[10] = parameter Cmin,ss, 244 patients, p 0.059

Structure (SMILES): Cc1cc(Nc2ncc(Cl)c(Nc3ccccc3S(=O)(=O)C(C)C)n2)c2c(c1C1CCN(C)CC1)C[C@@H](C)O2 [SAF-189s]
- Incidence CR ([1]; Cmin,ss quartile 1 (18–60.7 ng mL^–1)): 1 (1.64) N (%)
- Incidence NE [1, 5]: 0 (0.00) N (%)
- Incidence PD [1, 5]: 3 (4.92) N (%)
- Incidence PR [1, 5]: 53 (86.89) N (%)
- Incidence SD [1, 5]: 4 (6.56) N (%)
- Incidence CR ([1]; Cmin,ss quartile 2 (60.7–79 ng mL^–1)): 0 (0.00) N (%)
- Incidence NE [1, 6]: 0 (0.00) N (%)
- Incidence PD [1, 6]: 4 (6.56) N (%)
- Incidence PR [1, 6]: 44 (72.13) N (%)
- Incidence SD [1, 6]: 13 (21.31) N (%)
- Incidence CR ([1]; Cmin,ss quartile 3 (79–108 ng mL^–1)): 0 (0.00) N (%)
- Incidence NE [1, 7]: 0 (0.00) N (%)
- Incidence PD [1, 7]: 2 (3.28) N (%)
- Incidence PR [1, 7]: 47 (77.05) N (%)
- Incidence SD [1, 7]: 12 (19.67) N (%)
- Incidence CR ([1]; Cmin,ss quartile 4 (108–182 ng mL^–1)): 1 (1.64) N (%)
- Incidence NE [1, 8]: 0 (0.00) N (%)
- Incidence PD [1, 8]: 3 (4.92) N (%)
- Incidence PR [1, 8]: 46 (75.41) N (%)
- Incidence SD [1, 8]: 11 (18.03) N (%)
- odds ratio (OR), probability of achieving ORR vs Cmin,ss ([1]; logistic regression, all patients (n = 244), p = 0.084): 0.556
- Cox regression estimate, DOR [1, 9]: 0.0059
- Hazard ratio (95% CI), DOR [1, 9]: 1.006 (0.996–1.016)
- Cox regression estimate, PFS [1, 10]: 0.0071
- Hazard ratio (95% CI), PFS [1, 10]: 1.007 (1.000–1.015)
- tumor size after initiation of treatment ([1]; tumor growth inhibition (SFBE) model, most patients): decreased rapidly
- tolerability ([2]; 160 mg QD dosing regimen): well tolerated
- incidence of drug-related TEAE leading to permanent discontinuation ([2]; 160 mg dose group): 2%
- incidence of grade ≥3 TEAE ([2]; 160 mg dose group, ALK+ and ROS1+ patients (n = 153)): less than 9.15%
- tolerability ([2]; 210 mg dose vs other lower doses): less tolerated
- incidence rate of hyperglycemia ([2]; SAF001 patients, any grade): 55.74%
- Diarrhea, number of patients (%) ([2]; any grade, N = 296): 65 (21.96%)
- Hypercholesterolemia or cholesterol increase, number of patients (%) ([2]; any grade, N = 296): 111 (37.50%)
- Hyperglycemia, number of patients (%) ([2]; any grade, N = 296): 165 (55.74%)
- Nausea, number of patients (%) ([2]; any grade, N = 296): 112 (37.84%)
- Proteinuria, number of patients (%) ([2]; any grade, N = 296): 90 (30.41%)
- Vomiting, number of patients (%) ([2]; any grade, N = 296): 102 (34.46%)
- Diarrhea, number of patients (%) ([2]; ≥ Grade 2, N = 296): 17 (5.74%)
- Hypercholesterolemia or cholesterol increase, number of patients (%) ([2]; ≥ Grade 2, N = 296): 27 (9.12%)
- Hyperglycemia, number of patients (%) ([2]; ≥ Grade 2, N = 296): 82 (27.70%)
- Nausea, number of patients (%) ([2]; ≥ Grade 2, N = 296): 8 (2.70%)
- Proteinuria, number of patients (%) ([2]; ≥ Grade 2, N = 296): 28 (9.46%)
- Vomiting, number of patients (%) ([2]; ≥ Grade 2, N = 296): 15 (5.07%)
- OR for any-grade hyperglycemia ([3]; p < 0.001): 3.521
- OR for grade ≥2 hyperglycemia ([3]; p < 0.001): 7.662
- OR for proteinuria ([3]; p = 0.021): 2.031
- apparent clearance (CL/F) ([4]; after multiple doses at 20 mg once daily): 132 L h^–1
- apparent clearance (CL/F) ([4]; after multiple doses at 210 mg once daily): 58.3 L h^–1
